# Data from publication PMC6968775, “Assessment of contribution of BCRP to intestinal absorption of various drugs using portal‐systemic blood concentration difference model in mice” (Pharmacology Research & Perspectives, 2020).
# Assays:
# [1] = Blood/plasma concentration ratio (R b) in fresh whole blood; format: in vitro ADME, FVB mice; details: fresh whole blood, FVB mouse whole blood, 37°C
# Method: Similarly, the model compounds were added to plasma, and reference blood samples were obtained according to the same procedure. These concentrations of drugs in each sample were analyzed using HPLC (C B and C P, respectively). R b value was calculated by dividing C B by C P.
# [2] = Pharmacokinetics after iv and oral administration, P‐S difference method, Mdr1a/1b(−/−) mice; format: in vivo
# Method: (§1) Male Mdr1a/1b(−/−) and Bcrp(−/−) mice, and WT mice of the same genetic background (FVB) were obtained from Taconic Farms (Germantown, NY, USA). […] Food and water were available ad libitum. All experiments were carried out in accordance with the principles and procedures outlined in the National Institutes of Health Guide for the Care and Use of Laboratory.
# (§2) All the mice were fasted overnight with free access to tap water. In the intravenous administration studies, model compounds were administered via the tail vein at doses of 1 mg/kg (n = 3). Following administration, blood samples were collected from the abdominal vein of the anesthetized mice at 0.083, 0.17, 0.5, 1, 2, 4, and 8 hours. […] Following administration, blood samples were taken from the portal and abdominal veins of the anesthetized mice at 0.083, 0.17, 0.5, 1, 2, 4, and 8 hours. The plasma samples were separated by centrifugation at 14 000g for 10 minutes at 4°C and stored at −30°C until analysis.
# (§3) After organic layer was evaporated at 60°C, the resultant residues were dissolved in a mobile phase. For the determination of topotecan and sulfasalazine, plasma samples were mixed with acetonitrile, centrifuged at 750 g for 10 minutes at 4°C, and the supernatants were collected. After the evaporation of the supernatants, the residues were dissolved in a mobile phase, and acidified with phosphoric acid for topotecan. All drugs were analyzed by HPLC system (Shimadzu LC‐10AS pump, Shimadzu SIL‐10A autosampler) equipped with a reverse‐phase column (COSMOSIL 5C18‐AR‐II, 3.5‐μm […], 4.6 × 150 mm).
# (§4) Elimination rate constant (k e) was determined by the least squares regression analysis of plasma concentration vs time curve. Elimination half‐life (t 1/2) was calculated using Eq.1:(1) t1/2=ln2/ke
# (§5) Area under plasma concentration‐time curve (AUC) and area under the first moment curve (AUMC) from time 0 to infinity were calculated by trapezoidal rule.
# (§6) Absorption rate constant (k a) after oral administration was calculated by the nonlinear least squares fitting with program MULTI.12
# (§7) BA was calculated by Eq.5:(7) BA=AUCoral/AUCiv×Doseiv/Doseoral×100 where AUCoral is AUC after oral administration. Doseiv and Doseoral are administered dose in the intravenous and oral administration study, respectively.
# (§8) Hepatic availability (F h) was calculated by Eq.6:(8) Fh=F/Fa×Fg
# [3] = human; cited from earlier work
# [4] = Pharmacokinetics after iv and oral administration, P‐S difference method, Bcrp(−/−) mice; format: in vivo
# Method: as §1, §2, §3, §4, §5, §6, §7, §8
# P‐gp [5] = details: in vivo (mice); calculated from F a F g in WT, Bcrp(−/−) and Mdr1a/1b(−/−) mice (Eq. 12)
# [6] = Pharmacokinetics after iv and oral administration, P‐S difference method, wild‐type mice; format: in vivo
# Method: as §1, §2, §3, §4, §5, §6, §7, §8
# P‐gp [7] = details: Caco‐2 permeability study; unpublished data; ref Fujita et al, manuscript in preparation; cited from earlier work
# [8] = Mdr1a/1b(−/−) mice, p.o. (ciprofloxacin 1, nitrofurantoin 2, topotecan 1, sulfasalazine 5 mg/kg)
# [9] = male, Mdr1a/1b(−/−) (FVB background), mouse, systemic plasma (abdominal vein), po
# [10] = Bcrp(−/−) mice, p.o. (ciprofloxacin 1, nitrofurantoin 2, topotecan 1, sulfasalazine 5 mg/kg)
# [11] = Bcrp(−/−) mice, p.o. (ciprofloxacin 1, nitrofurantoin 2, topotecan 1, sulfasalazine 5 mg/kg), systemic (sys) plasma
# [12] = wild‐type mice, p.o. (ciprofloxacin 1, nitrofurantoin 2, topotecan 1, sulfasalazine 5 mg/kg)
# [13] = wild‐type mice, p.o. (ciprofloxacin 1, nitrofurantoin 2, topotecan 1, sulfasalazine 5 mg/kg), systemic (sys) plasma
compound,measurement,setting,value
"O=C(O)c1cc(/N=N/c2ccc(S(=O)(=O)Nc3ccccn3)cc2)ccc1O [sulfasalazine, Sulfasalazine]","blood plasma ratio at 15 min, 1 µg/mL",[1],1.28 ± 0.03
same,F h,[2]; [8],55.6%
same,k a,[2]; [8],0.93 h⁻¹
same,BA,"[2]; Mdr1a/1b(−/−) mice, p.o. (ciprofloxacin 1, nitrofurantoin 2, topotecan 1, sulfasalazine 5 mg/kg) vs iv 1 mg/kg",11.5%
same,F a F g,"[2]; Mdr1a/1b(−/−) mice, p.o. (ciprofloxacin 1, nitrofurantoin 2, topotecan 1, sulfasalazine 5 mg/kg), P‐S difference method",30%
same,"k a, P‐gp","[2]; Table 5 summary, Mdr1a/1b(−/−) mice, oral administration",0.93
same,(F a F g)P‐gp,"[2]; as fraction, Mdr1a/1b(−/−) mice, oral administration",0.30
same,clearance,"[2]; male, FVB Mdr1a/1b(−/−), mouse, plasma (systemic, abdominal vein), Mdr1a/1b(−/−) mice, iv 1 mg/kg, read-out: CL tot (converted)",9.83 mL/min/kg
same,Vd,"[2]; male, FVB Mdr1a/1b(−/−), mouse, plasma (systemic, abdominal vein), Mdr1a/1b(−/−) mice, iv 1 mg/kg, read-out: Vdss",0.45 L/kg
same,half-life,"[2]; male, Mdr1a/1b(−/−) (FVB background), mouse, plasma, Mdr1a/1b(−/−) mice, iv 1 mg/kg",1.63 h
same,AUC(0-inf),"[2]; male, Mdr1a/1b(−/−) (FVB background), mouse, plasma, Mdr1a/1b(−/−) mice, iv 1 mg/kg, read-out: AUC 0→∞",4.28 µM·h
same,Tmax,"[2]; male, Mdr1a/1b(−/−) (FVB background), mouse, portal vein plasma, po",0.17 h
same,Tmax,[2]; [9],0.5 h
same,half-life,[2]; [9],1.11 h
same,"AUC after oral administration, patients heterozygous variant for the BCRP SNP vs normal BCRP",[3],approximately 2 fold
same,human BA,[3],< 15%
same,human F a F g,[3],12%
same,F h,[4]; [10],73.2%
same,k a,[4]; [10],0.49 h⁻¹
same,BA,"[4]; Bcrp(−/−) mice, p.o. (ciprofloxacin 1, nitrofurantoin 2, topotecan 1, sulfasalazine 5 mg/kg) vs iv 1 mg/kg",95.2%
same,AUC 0→∞ (AUCpv),"[4]; Bcrp(−/−) mice, p.o. (ciprofloxacin 1, nitrofurantoin 2, topotecan 1, sulfasalazine 5 mg/kg), portal vein (pv) plasma",290 000 nmol/L·h
same,AUC 0→∞ (AUCsys),[4]; [11],288 000 nmol/L·h
same,t 1/2,[4]; [11],7.07 h
same,"k a, bcrp","[4]; Table 5 summary, Bcrp(−/−) mice, oral administration",0.49
same,(F a F g)bcrp,"[4]; as fraction, Bcrp(−/−) mice, oral administration",1.30
same,half-life,"[4]; male, Bcrp(−/−) (FVB background), mouse, plasma, iv, 1 mg/kg, Bcrp(−/−) mice, iv 1 mg/kg",3.57 h
same,Tmax,"[4]; male, Bcrp(−/−) (FVB background), mouse, portal vein plasma, po",2 h
same,Tmax,"[4]; male, Bcrp(−/−) (FVB background), mouse, systemic plasma (abdominal vein), po",2 h
same,AUC(0-inf),"[4]; male, FVB Bcrp(−/−), mouse, plasma (systemic, abdominal vein), iv, 1 mg/kg, Bcrp(−/−) mice, iv 1 mg/kg, read-out: AUC 0→∞",60.5 µM·h
same,C0,"[4]; male, FVB Bcrp(−/−), mouse, plasma (systemic, abdominal vein), Bcrp(−/−) mice, intravenous injection 1 mg/kg, read-out: extrapolated plasma concentration at zero time (C 0)",18.1 µM
same,clearance,"[4]; male, FVB Bcrp(−/−), mouse, plasma (systemic, abdominal vein), Bcrp(−/−) mice, iv 1 mg/kg, read-out: CL tot (converted)",0.667 mL/min/kg
same,Vd,"[4]; male, FVB Bcrp(−/−), mouse, plasma (systemic, abdominal vein), Bcrp(−/−) mice, iv 1 mg/kg, read-out: Vdss",0.19 L/kg
same,AUC(0-inf),"[4]; male, FVB Bcrp(−/−), mouse, portal vein plasma, po, Bcrp(−/−) mice, p.o. (ciprofloxacin 1, nitrofurantoin 2, topotecan 1, sulfasalazine 5 mg/kg), portal vein (pv) plasma, read-out: AUC 0→∞ (AUCpv)",290 µM·h
same,half-life,"[4]; male, FVB Bcrp(−/−), mouse, systemic plasma (abdominal vein), po, Bcrp(−/−) mice, p.o. (ciprofloxacin 1, nitrofurantoin 2, topotecan 1, sulfasalazine 5 mg/kg), systemic (sys) plasma",7 h
same,AUC(0-inf),"[4]; male, FVB Bcrp(−/−), mouse, systemic plasma (abdominal vein), po, Bcrp(−/−) mice, p.o. (ciprofloxacin 1, nitrofurantoin 2, topotecan 1, sulfasalazine 5 mg/kg), systemic (sys) plasma, read-out: AUC 0→∞ (AUCsys)",288 µM·h
same,"AUC pv and AUC sys after oral administration, Bcrp(−/−) mice vs WT mice",[4]; oral administration,more than 130 fold
same,R P‐gp (rate of P‐gp contribution),P‐gp [5],0.09
same,"k a, wt","[6]; Table 5 summary, WT mice, oral administration",1.40
same,C0,"[6]; male, FVB (wild-type), mouse, plasma (systemic, abdominal vein), WT mice, intravenous injection 1 mg/kg, read-out: extrapolated plasma concentration at zero time (C 0)",11.7 µM
same,clearance,"[6]; male, FVB (wild-type), mouse, plasma (systemic, abdominal vein), wild‐type mice, iv 1 mg/kg, read-out: CL tot (converted)",11 mL/min/kg
same,Vd,"[6]; male, FVB (wild-type), mouse, plasma (systemic, abdominal vein), wild‐type mice, iv 1 mg/kg, read-out: Vdss",0.59 L/kg
same,half-life,"[6]; male, FVB (wild-type), mouse, plasma, iv, 1 mg/kg, wild‐type mice, iv 1 mg/kg",1.95 h
same,AUC(0-inf),"[6]; male, FVB (wild-type), mouse, plasma, iv, 1 mg/kg, wild‐type mice, iv 1 mg/kg, read-out: AUC 0→∞",3.82 µM·h
same,Tmax,"[6]; male, FVB (wild-type), mouse, portal vein plasma, po",0.17 h
same,AUC(0-inf),"[6]; male, FVB (wild-type), mouse, portal vein plasma, po, wild‐type mice, p.o. (ciprofloxacin 1, nitrofurantoin 2, topotecan 1, sulfasalazine 5 mg/kg), portal vein (pv) plasma, read-out: AUC 0→∞ (AUCpv)",2.2 µM·h
same,Tmax,"[6]; male, FVB (wild-type), mouse, systemic plasma (abdominal vein), po",0.5 h
same,half-life,"[6]; male, FVB (wild-type), mouse, systemic plasma (abdominal vein), po, wild‐type mice, p.o. (ciprofloxacin 1, nitrofurantoin 2, topotecan 1, sulfasalazine 5 mg/kg), systemic (sys) plasma",1 h
same,AUC(0-inf),"[6]; male, FVB (wild-type), mouse, systemic plasma (abdominal vein), po, wild‐type mice, p.o. (ciprofloxacin 1, nitrofurantoin 2, topotecan 1, sulfasalazine 5 mg/kg), systemic (sys) plasma, read-out: AUC 0→∞ (AUCsys)",1.94 µM·h
same,F h,[6]; [12],60.1%
same,k a,[6]; [12],1.40 h⁻¹
same,BA,"[6]; wild‐type mice, p.o. (ciprofloxacin 1, nitrofurantoin 2, topotecan 1, sulfasalazine 5 mg/kg) vs iv 1 mg/kg",10.2%
same,F a F g,"[6]; wild‐type mice, p.o. (ciprofloxacin 1, nitrofurantoin 2, topotecan 1, sulfasalazine 5 mg/kg), P‐S difference method",16.9%
same,AUC 0→∞ (AUCpv),"[6]; wild‐type mice, p.o. (ciprofloxacin 1, nitrofurantoin 2, topotecan 1, sulfasalazine 5 mg/kg), portal vein (pv) plasma",2.2 µM·h
same,AUC 0→∞ (AUCsys),[6]; [13],1.94 µM·h
same,t 1/2,[6]; [13],1.11 h
same,AQp‐gp in vitro (Caco‐2),P‐gp [7],0.05
